# According to patent US20260144793A1, “METHODS OF TREATING CANCER” (AMGEN INC., priority 2022, published 2026):
# Tests used:
# [1] = system: patients with KRAS G12C-mutated NSCLC, CRC, or other solid tumors; conditions: N = 27, all RMC-4630 doses with sotorasib 960 mg QD; TRAEs related to the labelled drug (combination: either drug)
# Text: Note that D1D4 indicates administration of Day 1 and Day 4 of each 7 days.
# Dose exploration will begin with treating 3-4 subjects at Dose Level 1. The study dose-limiting toxicity (DLT) period is 21 days. Once all subjects enrolled at a certain dose level and schedule are DLT evaluable, a Dose Level Review Team (DLRT) meeting will be convened. For any dose level (including Dose Level 1), and depending on observed safety data, the following may occur: 1) dose escalation to the next highest dose level or 2) additional enrollment to the current dose level or 3) dose de-escalation to the next lowest dose level. Rules for dose-escalation/de-escalation are derived using a modified Toxicity Probability Interval-2 (mTPI-2) model (Guo et al, 2017) with a target toxicity probability of 0.30 (Table 2)
# The grading of adverse events will be based on the guidelines provided in the CTCAE version 5.0. […] A subject without a DLT will not be DLT evaluable if the date of decision to end both investigational products is before the completion of the DLT window.
# The adverse event grading scale to be used for this study will be the CTCAE v5.0. The investigator is responsible for ensuring that all serious adverse events observed by the investigator or reported by the subject that occur after the signing of the informed consent through the safety follow-up visit or 30 days after last day of dosing interval of investigational product(s)/protocol-required therapies, whichever is later, are reported using the Events CRF. The criteria for grade 4 in the CTCAE grading scale differs from the regulatory criteria for serious adverse events. If adverse events correspond to a grade 4 CTCAE toxicity grading scale criteria (e.g., laboratory abnormality reported as grade 4 without manifestation of life-threatening status), it will be left to the investigator's judgment to also report these abnormalities as serious adverse events. For any adverse event that applies to this situation, comprehensive documentation of the event's severity must be recorded in the subject medical records. If the investigator becomes aware of serious adverse events suspected to be related to investigational products after the protocol-required reporting period is complete, then these serious adverse events will be reported within 24 hours following the investigator's awareness of the event using the Events CRF. Since a study endpoint is overall survival, the investigator will also need to collect/report fatal serious adverse events (regardless of causality) within 24 hours following investigator's awareness of the event. […] However, if the investigator becomes aware of serious adverse events suspected to be related to investigational products, then these serious adverse events will be reported within 24 hours following the investigator's awareness of the event. Serious adverse events reported outside of the protocol-required reporting period will be captured within the safety database as clinical trial cases and handled accordingly based on relationship to investigational product. If further safety related data is needed to fulfill any regulatory reporting requirements for a reportable event, then additional information may need to be collected from the subject's records after the subject ends the study.
# The primary endpoint was safety/tolerability. Secondary endpoints included objective response rate per RECIST 1.1 and pharmacokinetics.
# [2] = Phase 1b study of sotorasib in combination with RMC-4630: pharmacokinetic analysis; assay type: in vivo, human; conditions: sotorasib 960 mg QD + RMC-4630 100, 140 or 200 mg; compared with monotherapy studies
# Text: The primary endpoint was safety/tolerability.
# [3] = Concomitant administration of sotorasib with acid reducing agents; assay type: in vivo; conditions: with proton pump inhibitors (e.g., omeprazole) or H2-receptor antagonists (e.g., famotidine)
# [4] = system: phosphorylation of extracellular signal-regulated kinase (ERK); conditions: preclinical studies; cited from earlier work
smiles,measurement,setting,value
"C=CC(=O)N1CCN(c2nc(=O)n(-c3c(C)ccnc3C(C)C)c3nc(-c4c(O)cccc4F)c(F)cc23)[C@@H](C)C1 [Sotorasib, 6-fluoro-7-(2-fluoro-6-hydroxyphenyl)-(1M)-1-[4-methyl-2-(propan-2-yl)pyridin-3-yl]-4-[(2S)-2-methyl-4-(prop-2-enoyl)piperazin-1-yl]pyrido[2,3-d]pyrimidin-2 (1H)-one]","AST increased, All Grades, %",[1],4%
same,"AST increased, Grade 3, %",[1],4%
same,"Ascites, All Grades, %",[1],4%
same,"Ascites, Grade 3, %",[1],4%
same,"Colitis, All Grades, %",[1],4%
same,"Colitis, Grade 3, %",[1],4%
same,"Diarrhea, All Grades, %",[1],26%
same,"Diarrhea, Grade 3, %",[1],7%
same,"Dry mouth, All Grades, %",[1],11%
same,"Dyspnea, All Grades, %",[1],4%
same,"Dyspnea, Grade 3, %",[1],4%
same,"Edema (general, peripheral, periorbital, facial), All Grades, %",[1],26%
same,"Fatigue, All Grades, %",[1],11%
same,"Total TRAE, All Grades, %",[1],56%
same,"Total TRAE, Grade 3, %",[1],22%
same,Average exposure in the combination,[2],consistent with distributions observed in monotherapy studies
same,Sotorasib concentrations on concomitant administration,[3],decreased sotorasib concentrations
same,Inhibition of ERK phosphorylation,[4],inhibited nearly all detectable phosphorylation
